Patent US11629135B2 (JUBILANT PRODEL LLC, priority 2017, dated 2023)

Biological target: T1, PD-1/PD-L1 interaction (Homo sapiens, UniProt Q9NZQ7)
T1 construct: Tag1 or Tag2 (undisclosed kit tag); purchased CisBio 63ADK000CPAPEG
Assay: PD-1/PD-L1 Homogenous Time-Resolved Fluorescence (HTRF) binding assay
Conditions: Biochemical PD1/PD-L1 inhibition
Description: PD-L1 Enzyme Assay: Homogenous Time-Resolved Fluorescence (HTRF) Binding Assay
All binding studies were performed using PD-1/PD-L1 Binding Assay Kit from CisBio (Catalog #63ADK000CPAPEG), according to the manufacturer's protocol. The interaction between Tag1-PD-1 and […] was detected by anti-Tag1-Eu^3+ (HTRF donor) and anti-Tag2-XL665 (HTRF acceptor). When the donor and acceptor antibodies were brought to close proximity due to PD-1 and PD-L1 binding, excitation of the donor antibody triggered fluorescent resonance energy transfer (FRET) towards the acceptor antibody, which in turn emitted specifically at 665 nm. This specific signal is positively proportional to PD-1/PD-L1 interaction. The compounds blocking PD-1/PD-L1 interaction will cause a reduction in HTRF signal. The necessary reagents were mixed in the following order: 2 μl compounds (or diluents buffer), 4 μl PD-L1 protein, 4 μl PD-1 protein. After an incubation of 15 minutes, 5 μl of anti-Tag1-Eu^3+ and 5 μl of anti-Tag2-XL665 were added. The plate was sealed and incubated at RT for 1 h. The fluorescence emission was read at two different wavelengths (665 nm and 620 nm) on a BMG PheraStar® multiplate reader. Results were calculated from the 665 nm and 620 nm fluorescence signal and expressed in HTRF ratio=(665 nm/620 nm)×[…].

T1 sequence (Q9NZQ7 19-238 limits assumed): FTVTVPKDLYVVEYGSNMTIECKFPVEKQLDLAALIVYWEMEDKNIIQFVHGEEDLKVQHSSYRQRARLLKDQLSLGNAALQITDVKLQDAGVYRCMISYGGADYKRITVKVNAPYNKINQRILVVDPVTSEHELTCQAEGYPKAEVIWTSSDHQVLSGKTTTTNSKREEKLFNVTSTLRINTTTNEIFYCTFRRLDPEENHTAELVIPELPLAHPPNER

Row | IC50 [nM] | Structure (SMILES)
1 | > 500 | Cc1c(COc2ncc(CN3CCCCC3C(=O)O)c(OCc3ccccc3)n2)cccc1-c1ccccc1 (stereo not drawn) [Compound 33, 1-((4-(benzyloxy)-2-((2-methyl-[1,1′-biphenyl]-3-yl)methoxy)pyrimidin-5-yl)methyl)piperidine-2-carboxylic acid]
2 | < 100 | COc1nc(OCc2cccc(-c3ccccc3)c2C)nc(OC)c1CN1C[C@H](O)C[C@H]1C(=O)O [Compound 34, (2S,4R)-1-((4,6-dimethoxy-2-((2-methyl-[1,1′-biphenyl]-3-yl)methoxy)pyrimidin-5-yl)methyl)-4-hydroxypyrrolidine-2-carboxylic acid]
3 | < 100 | COc1nc(OCc2cccc(-c3ccccc3)c2C)nc(OC)c1CNC(CO)(CO)CO [Compound 35, 2-(((4,6-dimethoxy-2-((2-methyl-[1,1′-biphenyl]-3-yl)methoxy)pyrimidin-5-yl)methyl)amino)-2-(hydroxymethyl)propane-1,3-diol]
4 | 100 to 500 | COc1nc(OCc2cccc(-c3ccccc3)c2C)nc(OC)c1CN1CCC[C@H]1C(=O)O [Compound 36, ((4,6-dimethoxy-2-((2-methyl-[1,1′-biphenyl]-3-yl)methoxy)pyrimidin-5-yl)methyl)-L-proline]
5 | > 500 | COC(=O)C1COCCN1Cc1c(OC)nc(OCc2cccc(-c3ccccc3)c2C)nc1OC (stereo not drawn) [Compound 37, Methyl 4-((4,6-dimethoxy-2-((2-methyl-[1,1′-biphenyl]-3-yl)methoxy)pyrimidin-5-yl)methyl) morpholine-3-carboxylate]
6 | < 100 | COc1nc(OCc2cccc(-c3ccccc3)c2C)nc(OC)c1CN1CCOCC1C(=O)O (stereo not drawn) [Compound 38, 4-((4,6-dimethoxy-2-((2-methyl-[1,1′-biphenyl]-3-yl)methoxy)pyrimidin-5-yl)methyl)morpholine-3-carboxylic acid]
7 | 100 to 500 | CCOc1nc(OCc2cccc(-c3ccccc3)c2C)nc(OCC)c1CN1C[C@H](O)C[C@H]1C(=O)O [Compound 39, (2S,4R)-1-((4,6-diethoxy-2-((2-methyl-[1,1′-biphenyl]-3-yl)methoxy)pyrimidin-5-yl)methyl)-4-hydroxypyrrolidine-2-carboxylic acid]
8 | 100 to 500 | CCOc1nc(OCc2cccc(-c3ccccc3)c2C)nc(OCC)c1CN1CCCC[C@H]1C(=O)O [Compound 40]
9 | 100 to 500 | CCOc1nc(OCc2cccc(-c3ccccc3)c2C)nc(OCC)c1CNC(CO)(CO)CO [Compound 41, 2-(((4,6-diethoxy-2-((2-methyl-[1,1′-biphenyl]-3-yl)methoxy)pyrimidin-5-yl)methyl)amino)-2-(hydroxymethyl)propane-1,3-diol]
10 | < 100 | COc1nc(OCc2cccc(-c3ccccc3)c2C)nc(OC)c1CN1CCOC[C@H]1C(=O)O [Compound 43, (S)-4-((4,6-dimethoxy-2-((2-methyl-[1,1′-biphenyl]-3-yl)methoxy)pyrimidin-5-yl)methyl)morpholine-3-carboxylic acid]
11 | 100 to 500 | COc1nc(OCc2cccc(-c3ccccc3)c2C)nc(OC)c1CN1CCOCC1CC(=O)O (stereo not drawn) [Compound 44, 2-(4-((4,6-dimethoxy-2-((2-methyl-[1,1′-biphenyl]-3-yl)methoxy)pyrimidin-5-yl)methyl)morpholin-3-yl)acetic acid]
12 | < 100 | COc1nc(OCc2cccc(-c3ccccc3)c2C)nc(OC)c1CN1CC2(CC2)C[C@H]1C(=O)O [Compound 46, (S)-5-((4,6-dimethoxy-2-((2-methyl-[1,1′-biphenyl]-3-yl)methoxy)pyrimidin-5-yl)methyl)-5-azaspiro[2.4]heptane-6-carboxylic acid]
13 | < 100 | COc1nc(OCc2cccc(-c3ccccc3)c2C)nc(OC)c1CN1CCCC2(CCNC2=O)C1 (stereo not drawn) [Compound 47, 7-((4,6-dimethoxy-2-((2-methyl-[1,1′-biphenyl]-3-yl)methoxy)pyrimidin-5-yl)methyl)-2,7-diazaspiro[4.5]decan-1-one]
14 | > 500 | COc1nc(OCc2cccc(-c3ccccc3)c2C)ncc1CN1CCN(C(C)=O)C[C@H]1C(=O)O [Compound 49, (S)-4-acetyl-1-((4-methoxy-2-((2-methyl-[1,1′-biphenyl]-3-yl)methoxy)pyrimidin-5-yl)methyl)piperazine-2-carboxylic acid]
15 | > 500 | COc1nc(OCc2cccc(-c3ccccc3)c2C)ncc1CN1CCNC[C@H]1C(=O)O [Compound 50, (S)-1-((4-methoxy-2-((2-methyl-[1,1′-biphenyl]-3-yl)methoxy)pyrimidin-5-yl)methyl)piperazine-2-carboxylic acid]
16 | > 500 | COc1nc(OCc2cccc(-c3ccccc3)c2C)ncc1CN1CC2(CC2)C[C@H]1C(=O)O [Compound 51, (S)-5-((4-methoxy-2-((2-methyl-[1,1′-biphenyl]-3-yl)methoxy)pyrimidin-5-yl)methyl)-5-azaspiro[2.4]heptane-6-carboxylic acid]
17 | > 500 | COc1nc(OCc2cccc(-c3ccccc3)c2C)ncc1CN1CCCC2(CCNC2=O)C1 (stereo not drawn) [Compound 52, 7-((4-methoxy-2-((2-methyl-[1,1′-biphenyl]-3-yl)methoxy)pyrimidin-5-yl)methyl)-2,7-diazaspiro[4.5]decan-1-one]
18 | > 500 | CC(=O)NCCNCc1cnc(OCc2cccc(-c3ccccc3)c2C)nc1OCc1ccc(F)c(C#N)c1 [Compound 53, N-(2-(((4-((3-cyano-4-fluorobenzyl)oxy)-2-((2-methyl-[1,1′-biphenyl]-3-yl)methoxy)pyrimidin-5-yl)methyl)amino)ethyl)acetamide]
19 | 100 to 500 | Cc1c(COc2ncc(CN3C[C@H](O)C[C@H]3C(=O)O)c(OCc3ccc(F)c(C#N)c3)n2)cccc1-c1ccccc1 [Compound 54, (2S,4R)-1-((4-((3-cyano-4-fluorobenzyl)oxy)-2-((2-methyl-[1,1′-biphenyl]-3-yl)methoxy)pyrimidin-5-yl)methyl)-4-hydroxypyrrolidine-2-carboxylic acid]
20 | < 100 | COc1nc(OCc2cccc(-c3ccc4c(c3)OCCO4)c2C)nc(OC)c1CN1CCCC[C@H]1C(=O)O [Compound 55, (S)-1-((2-((3-(2,3-dihydrobenzo[b][1,4]dioxin-6-yl)-2-methylbenzyl)oxy)-4,6-dimethoxypyrimidin-5-yl)methyl)piperidine-2-carboxylic acid]
21 | < 100 | COc1nc(OCc2cccc(-c3ccc4c(c3)OCCO4)c2C)nc(OC)c1CNCCNC(C)=O [Compound 56, N-(2-(((2-((3-(2,3-dihydrobenzo[b][1,4]dioxin-6-yl)-2-methylbenzyl)oxy)-4,6-dimethoxypyrimidin-5-yl)methyl)amino)ethyl)acetamide]
22 | > 500 | COc1ccc(-c2cccc(COc3nc(OC)c(CNCCNC(C)=O)c(OC)n3)c2C)cc1OC [Compound 57, N-(2-(((2-((3′,4′-dimethoxy-2-methyl-[1,1′-biphenyl]-3-yl)methoxy)-4,6-dimethoxypyrimidin-5-yl)methyl)amino)ethyl)acetamide]
23 | > 500 | COc1ccc(-c2cccc(COc3nc(OC)c(CN4C[C@H](O)C[C@H]4C(=O)O)c(OC)n3)c2C)cc1OC [Compound 58]
24 | > 500 | Cc1c(COc2ncc(CN3C[C@H](O)C[C@H]3C(=O)O)c(OCc3cncc(C#N)c3)n2)cccc1-c1ccccc1 [Compound 59, (2S,4R)-1-((4-((5-cyanopyridin-3-yl)methoxy)-2-((2-methyl-[1,1′-biphenyl]-3-yl)methoxy)pyrimidin-5-yl)methyl)-4-hydroxypyrrolidine-2-carboxylic acid]
25 | 100 to 500 | COc1nc(OCc2cccc(-c3ccccc3)c2C)ncc1CN1CCCC[C@H]1CC(=O)O [Compound 60, (S)-2-(1-((4-methoxy-2-((2-methyl-[1,1′-biphenyl]-3-yl)methoxy)pyrimidin-5-yl)methyl)piperidin-2-yl) acetic acid]
26 | < 100 | Cc1nc(OCc2cccc(-c3ccccc3)c2C)ncc1CN1CCCC[C@H]1C(=O)O [Compound 64, (S)-1-((4-methyl-2-((2-methyl-[1,1′-biphenyl]-3-yl)methoxy)pyrimidin-5-yl)methyl)piperidine-2-carboxylic acid]
27 | 100 to 500 | CC(=O)NCCNCc1cnc(OCc2cccc(-c3ccccc3)c2C)nc1C [Compound 65, N-(2-(((4-methyl-2-((2-methyl-[1,1′-biphenyl]-3-yl)methoxy)pyrimidin-5-yl)methyl)amino)ethyl)acetamide]
